Starred links: 1 amine or outer side, 2 acyl side, 3 side chain; linkers in the order of their positions; H or OH if unused. Positions of bridges follow the written chain, without caps; N, C: chain ends. Non-standard residues stand in square brackets, D forms with d. Residues, ends and D or L forms follow the SMILES beside them. X5 = O=C(CCSCCN[*:3])N1CN(C(=O)CC[*:1])CN(C(=O)CC[*:2])C1; TATA = O=C(CC[*:1])N1CN(C(=O)CC[*:2])CN(C(=O)CC[*:3])C1; Ala(4-thiazolyl) = N[C@@H](Cc1cscn1)C(=O)O; Dip = N[C@H](C(=O)O)C(c1ccccc1)c1ccccc1; Hyp = O=C(O)[C@@H]1C[C@@H](O)CN1; hArg = N=C(N)NCCCC[C@H](N)C(=O)O; Aad = N[C@@H](CCCC(=O)O)C(=O)O; dNle = CCCC[C@@H](N)C(=O)O; NMeA = CN[C@@H](C)C(=O)O; Nle = CCCC[C@H](N)C(=O)O; Mpa = O=C(O)CCS
target: human EphA2 (Homo sapiens, UniProt P29317); assay: biochemical
Sequence (P29317 24-976): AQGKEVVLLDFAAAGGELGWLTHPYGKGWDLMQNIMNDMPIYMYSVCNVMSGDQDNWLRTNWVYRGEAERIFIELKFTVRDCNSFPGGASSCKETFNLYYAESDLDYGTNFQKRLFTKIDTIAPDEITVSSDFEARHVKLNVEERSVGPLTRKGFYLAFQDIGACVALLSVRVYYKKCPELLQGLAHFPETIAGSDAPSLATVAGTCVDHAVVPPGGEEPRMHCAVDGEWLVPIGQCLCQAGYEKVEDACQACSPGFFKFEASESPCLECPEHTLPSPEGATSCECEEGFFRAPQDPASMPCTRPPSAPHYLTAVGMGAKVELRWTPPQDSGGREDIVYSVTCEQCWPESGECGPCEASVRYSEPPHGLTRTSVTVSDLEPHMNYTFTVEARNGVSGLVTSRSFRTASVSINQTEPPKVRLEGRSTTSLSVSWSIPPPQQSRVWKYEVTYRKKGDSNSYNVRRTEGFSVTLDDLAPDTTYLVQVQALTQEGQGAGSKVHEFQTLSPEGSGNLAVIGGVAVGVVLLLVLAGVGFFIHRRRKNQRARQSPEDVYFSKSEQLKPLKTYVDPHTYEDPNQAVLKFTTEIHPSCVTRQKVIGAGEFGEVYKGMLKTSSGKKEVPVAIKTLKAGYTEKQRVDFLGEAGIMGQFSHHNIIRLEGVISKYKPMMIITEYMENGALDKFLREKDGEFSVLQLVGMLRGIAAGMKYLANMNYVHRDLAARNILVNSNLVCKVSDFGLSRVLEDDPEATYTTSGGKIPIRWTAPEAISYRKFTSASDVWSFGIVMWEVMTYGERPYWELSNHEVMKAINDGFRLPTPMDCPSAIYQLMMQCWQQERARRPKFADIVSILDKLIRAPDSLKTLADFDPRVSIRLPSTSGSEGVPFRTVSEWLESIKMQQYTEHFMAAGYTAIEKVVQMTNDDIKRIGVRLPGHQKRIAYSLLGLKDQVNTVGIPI
Experimental: Peptides without a fluorescent tag were tested in competition with a peptide with a fluorescent tag and a known Kd.
Peptides were diluted to an appropriate concentration in assay buffer as described in the direct binding assay with a maximum of 5% DMSO, then serially diluted 1 in 2. […] Measurements were conducted, however the gain was determined prior to the first measurement. Data analysis was in Systat Sigmaplot version 12.0 where the mP values were fit to a user defined cubic equation to generate a Ki value:
“Lig”, “KLig” and “Prot” were all defined values relating to: fluorescent peptide concentration, the Kd of the fluorescent peptide and EphA2 concentration respectively.

Compared with CN[C@@H](C)C(=O)N[C@@H](CCCCNC(=N)N)C(=O)N[C@@H](CC(=O)O)C(=O)N[C@H]1CSCCC(=O)N2CN3CN(C2)C(=O)CCSC[C@H](NC(=O)[C@H](CC(C)C)NC(=O)[C@@H]2CCCN2C(=O)[C@H](CC(N)=O)NC(=O)[C@H](C(C)C)NC(=O)[C@H](CC(C)C)NC(=O)[C@@H]2C[C@@H](O)CN2C1=O)C(=O)N[C@@H](CC(C)C)C(=O)N[C@@H](CCC(=O)O)C(=O)N1CCC[C@H]1C(=O)N[C@H](CC(=O)O)C(=O)N[C@@H](Cc1c[nH]c2ccccc12)C(=O)N[C@@H]([C@@H](C)O)C(=O)N[C@H](C(N)=O)CSCCC3=O [BCY13122, [NMeAla]-[HArg]-D-Ci[HyP]LVNPLCiiLEP[dD]WTCiii] (H-[NMeA][hArg]DC[Hyp]LVNPLCLEP[dD]WTC-NH2; linker 4-11-18 via TATA; N-terminus and C-terminus assumed), CC(C)C[C@@H]1NC(=O)[C@@H]2CSCCC(=O)N3CN(CN(C3)C(=O)CCSC[C@H](NC(=O)[C@H](CC(=O)O)NC(=O)[C@H](CCC(=O)O)NC(=O)[C@@H](C)N)C(=O)N3C[C@H](O)C[C@H]3C(=O)N[C@@H](CC(C)C)C(=O)N[C@@H](C(C)C)C(=O)N[C@@H](CC(N)=O)C(=O)N3CCC[C@H]3C(=O)N[C@@H](CC(C)C)C(=O)N2)C(=O)CCSC[C@@H](C(N)=O)NC(=O)[C@H]([C@@H](C)O)NC(=O)[C@H](Cc2c[nH]c3ccccc23)NC(=O)[C@@H](CC(=O)O)NC(=O)[C@@H]2CCCN2C(=O)[C@H](CCC(=O)O)NC1=O [BCY13126, [dA]-ED-Ci[HyP]LVNPLCiiLEP[dD]WTCiii] (H-[dA]EDC[Hyp]LVNPLCLEP[dD]WTC-NH2; linker 4-11-18 via TATA; N-terminus and C-terminus assumed) is 3.2-fold higher in Ki: 7.8 nM for the first, 25.3 nM for the second.

First: CC(=O)N[C@H]1CSCCC(=O)N2CN3CN(C2)C(=O)CCSC[C@H](NC(=O)[C@H](CC(C)C)NC(=O)[C@@H]2CCCN2C(=O)[C@H](CC(N)=O)NC(=O)[C@H](C(C)C)NC(=O)[C@H](CC(C)C)NC(=O)[C@@H]2C[C@@H](O)CN2C1=O)C(=O)N[C@@H](CC(C)C)C(=O)N[C@@H](Cc1c[nH]cn1)C(=O)N1CCC[C@H]1C(=O)N[C@H](CC(=O)O)C(=O)N[C@@H](Cc1c[nH]c2ccccc12)C(=O)N[C@@H](CCCCNC(=N)N)C(=O)N[C@H](C(=O)N[C@@H](CC(C)C)C(=O)N[C@H](Cc1c[nH]cn1)C(=O)NCC(=O)N[C@H](CCCCN)C(N)=O)CSCCC3=O [BCY13125, [Ac]Ci[HyP]LVNPLCiiLHP[dD]W[HArg]CiiiL[dH]G[dK]] (Ac-C[Hyp]LVNPLCLHP[dD]W[hArg]CL[dH]G[dK]-NH2; linker 1-8-15 via TATA; C-terminus assumed)
Second: CCCC[C@H]1NC(=O)[C@@H]2CCCN2C(=O)[C@H](Cc2c[nH]cn2)NC(=O)[C@H](CC(C)C)NC(=O)[C@@H]2CSCCC(=O)N3CN(CN(C3)C(=O)CCSC[C@H](NC(=O)[C@H](CC(=O)O)NC(=O)[C@H](CCCCNC(=N)N)NC(=O)[C@H](C)N)C(=O)N3C[C@H](O)C[C@H]3C(=O)N[C@@H](CC(C)C)C(=O)N[C@@H](C(C)C)C(=O)N[C@@H](CC(N)=O)C(=O)N3CCC[C@H]3C(=O)N[C@@H](CC(C)C)C(=O)N2)C(=O)CCSC[C@@H](C(N)=O)NC(=O)[C@H](CCCCNC(=N)N)NC(=O)[C@H](Cc2c[nH]c3ccccc23)NC1=O [BCY13134, A-[HArg]-D-Ci[HyP]LVNPLCiiLHP[dNle]W[HArg]Ciii] (H-A[hArg]DC[Hyp]LVNPLCLHP[dNle]W[hArg]C-NH2; linker 4-11-18 via TATA; N-terminus and C-terminus assumed)
The Ki of the first is 1.6-fold higher: 1.83 nM for the first, 1.16 nM for the second. The second binds more tightly here.

Compared with CC(C)C[C@@H]1NC(=O)[C@@H]2CSCCC(=O)N3CN(CN(C3)C(=O)CCSC[C@@H](C(=O)N[C@H](CCCCN)C(N)=O)NC(=O)[C@H]([C@@H](C)O)NC(=O)[C@H](Cc3c[nH]c4ccccc34)NC(=O)[C@@H](CC(=O)O)NC(=O)[C@@H]3CCCN3C(=O)[C@H](C(c3ccccc3)c3ccccc3)NC1=O)C(=O)CCSCCC(=O)N1C[C@H](O)C[C@H]1C(=O)N[C@@H](CC(C)C)C(=O)N[C@@H](C(C)C)C(=O)N[C@@H](CC(N)=O)C(=O)N1CCC[C@H]1C(=O)N[C@@H](CC(C)C)C(=O)N2 [BCY13129, [MerPro]i[HyP]LVNPLCiiL[3,3-DPA]P[dD]WTCiii[dK]] ([Mpa][Hyp]LVNPLCL[Dip]P[dD]WTC[dK]-NH2; linker 1-8-15 via TATA; C-terminus assumed), CC(C)C[C@@H]1NC(=O)[C@@H]2CSCCC(=O)N3CN(CN(C3)C(=O)CCSC[C@H](NC(=O)[C@H](CC(=O)O)NC(=O)[C@H](CCCCNC(=N)N)NC(=O)[C@H](C)N)C(=O)N3C[C@H](O)C[C@H]3C(=O)N[C@@H](CC(C)C)C(=O)N[C@@H](C(C)C)C(=O)N[C@@H](CC(N)=O)C(=O)N3CCC[C@H]3C(=O)N[C@@H](CC(C)C)C(=O)N2)C(=O)CCSC[C@@H](C(N)=O)NC(=O)[C@H](CCCCNC(=N)N)NC(=O)[C@H](Cc2c[nH]c3ccccc23)NC(=O)[C@@H](CC(=O)O)NC(=O)[C@@H]2CCCN2C(=O)[C@H](Cc2ccccc2)NC1=O [BCY13920, A[HArg]DCi[HyP]LVNPLCiiLFP[dD]W[HArg]Ciii] (H-A[hArg]DC[Hyp]LVNPLCLFP[dD]W[hArg]C-NH2; linker 4-11-18 via TATA; N-terminus and C-terminus assumed) is 2.9-fold lower in Ki: 1.88 nM for the first, 0.641 nM for the second. The second binds more tightly here.

First: CC(C)C[C@@H]1NC(=O)[C@@H]2CSCCC(=O)N3CN(CN(C3)C(=O)CCSC[C@H](NC(=O)[C@H](CC(=O)O)NC(=O)[C@H](CCCCNC(=N)N)NC(=O)[C@H](C)N)C(=O)N3C[C@H](O)C[C@H]3C(=O)N[C@@H](CCCC(=O)O)C(=O)N[C@@H](C(C)C)C(=O)N[C@@H](CC(N)=O)C(=O)N3CCC[C@H]3C(=O)N[C@@H](CC(C)C)C(=O)N2)C(=O)CCSC[C@@H](C(N)=O)NC(=O)[C@H](CCCCNC(=N)N)NC(=O)[C@H](Cc2c[nH]c3ccccc23)NC(=O)[C@@H](CC(=O)O)NC(=O)[C@@H]2CCCN2C(=O)[C@H](Cc2c[nH]cn2)NC1=O [BCY13130, A-[HArg]-D-Ci[HyP][hGlu]VNPLCiiLHP[dD]W[HArg]Ciii] (H-A[hArg]DC[Hyp][Aad]VNPLCLHP[dD]W[hArg]C-NH2; linker 4-11-18 via TATA; N-terminus and C-terminus assumed)
Second: CC(C)C[C@@H]1NC(=O)[C@@H]2C[C@@H](O)CN2C(=O)[C@@H](NC(=O)[C@H](CC(=O)O)NC(=O)[C@H](CCCCNC(=N)N)NC(=O)[C@H](C)N)CSCCC(=O)N2CN3CN(C2)C(=O)CCSC[C@H](NC(=O)[C@H](CC(C)C)NC(=O)[C@@H]2CCCN2C(=O)[C@H](CC(N)=O)NC(=O)[C@H](C(C)C)NC1=O)C(=O)N[C@@H](CCCC(=O)O)C(=O)N[C@@H](Cc1c[nH]cn1)C(=O)N1CCC[C@H]1C(=O)N[C@H](CC(=O)O)C(=O)N[C@@H](Cc1c[nH]c2ccccc12)C(=O)N[C@@H](CCCCNC(=N)N)C(=O)N[C@H](C(N)=O)CSCCC3=O [BCY13131, A-[HArg]-D-Ci[HyP]LVNPLCii[hGlu]HP[dD]W[HArg]Ciii] (H-A[hArg]DC[Hyp]LVNPLC[Aad]HP[dD]W[hArg]C-NH2; linker 4-11-18 via TATA; N-terminus and C-terminus assumed)
The Ki of the first is 3.5-fold lower: 7.8 nM for the first, 27.1 nM for the second. The first binds more tightly here.

Going from CC(C)C[C@@H]1NC(=O)[C@@H]2CSCCC(=O)N3CN(CN(C3)C(=O)CCSC[C@H](NC(=O)[C@H](CC(=O)O)NC(=O)[C@H](CCCCNC(=N)N)NC(=O)[C@H](C)N)C(=O)N3C[C@H](O)C[C@H]3C(=O)N[C@@H](CC(C)C)C(=O)N[C@@H](C(C)C)C(=O)N[C@@H](CC(N)=O)C(=O)N3CCC[C@H]3C(=O)N[C@@H](CC(C)C)C(=O)N2)C(=O)CCSC[C@@H](C(N)=O)NC(=O)[C@H](CCCCNC(=N)N)NC(=O)[C@H](Cc2c[nH]c3ccccc23)NC(=O)[C@@H](CC(=O)O)NC(=O)[C@@H]2CCCN2C(=O)[C@H](CCCC(=O)O)NC1=O [BCY13132, A-[HArg]-D-Ci[HyP]LVNPLCiiL[hGlu]P[dD]W[HArg]Ciii] (H-A[hArg]DC[Hyp]LVNPLCL[Aad]P[dD]W[hArg]C-NH2; linker 4-11-18 via TATA; N-terminus and C-terminus assumed) to CCCC[C@@H]1NC(=O)[C@H](CC(C)C)NC(=O)[C@@H]2CSCCC(=O)N3CN(CN(C3)C(=O)CCSC[C@H](NC(=O)[C@H](CC(=O)O)NC(=O)[C@H](CCCCNC(=N)N)NC(=O)[C@H](C)N)C(=O)N3C[C@H](O)C[C@H]3C(=O)N[C@@H](CC(C)C)C(=O)N[C@@H](C(C)C)C(=O)N[C@@H](CC(N)=O)C(=O)N3CCC[C@H]3C(=O)N[C@@H](CC(C)C)C(=O)N2)C(=O)CCSC[C@@H](C(N)=O)NC(=O)[C@H](CCCCNC(=N)N)NC(=O)[C@H](Cc2c[nH]c3ccccc23)NC(=O)[C@@H](CC(=O)O)NC(=O)[C@@H]2CCCN2C1=O [BCY13135, A-[HArg]-D-Ci[HyP]LVNPLCiiL[Nle]P[dD]W[HArg]Ciii] (H-A[hArg]DC[Hyp]LVNPLCL[Nle]P[dD]W[hArg]C-NH2; linker 4-11-18 via TATA; N-terminus and C-terminus assumed), the Ki falls from 7.08 nM to 0.894 nM (7.9-fold). The second binds more tightly here.

First: CC(C)C[C@@H]1NC(=O)[C@@H]2CSCCC(=O)N3CN(CN(C3)C(=O)CCSC[C@H](NC(=O)[C@H](CC(=O)O)NC(=O)[C@H](CCCCNC(=N)N)NC(=O)[C@H](C)N)C(=O)N3C[C@H](O)C[C@H]3C(=O)N[C@@H](CC(C)C)C(=O)N[C@@H](C(C)C)C(=O)N[C@@H](CC(N)=O)C(=O)N3CCC[C@H]3C(=O)N[C@@H](CC(C)C)C(=O)N2)C(=O)CCSCCNC(=O)[C@H](CCCCNC(=N)N)NC(=O)[C@H](Cc2c[nH]c3ccccc23)NC(=O)[C@@H](CC(=O)O)NC(=O)[C@@H]2CCCN2C(=O)[C@H](Cc2c[nH]cn2)NC1=O [BCY13133, A[HArg]DCi[HyP]LVNPLCiiLHP[dD]W[HArg][Cysam]iii] (H-A[hArg]DC[Hyp]LVNPLCLHP[dD]W[hArg]; linker 4-11-C via X5; N-terminus assumed)
Second: CC(C)C[C@@H]1NC(=O)[C@@H]2CSCCC(=O)N3CN(CN(C3)C(=O)CCSC[C@H](NC(=O)[C@H](CC(=O)O)NC(=O)[C@H](CCCCNC(=N)N)NC(=O)[C@H](C)N)C(=O)N3C[C@H](O)C[C@H]3C(=O)N[C@@H](CC(C)C)C(=O)N[C@@H](C(C)C)C(=O)N[C@@H](CC(N)=O)C(=O)N3CCC[C@H]3C(=O)N[C@@H](CC(C)C)C(=O)N2)C(=O)CCSC[C@@H](C(N)=O)NC(=O)[C@H](CCCCNC(=N)N)NC(=O)[C@H](Cc2c[nH]c3ccccc23)NC(=O)[C@@H](CC(=O)O)NC(=O)[C@@H]2CCCN2C(=O)[C@H](Cc2cscn2)NC1=O [BCY13919, A[HArg]DCi[HyP]LVNPLCiiL[4ThiAz]P[dD]W[HArg]Ciii] (H-A[hArg]DC[Hyp]LVNPLCL[Ala(4-thiazolyl)]P[dD]W[hArg]C-NH2; linker 4-11-18 via TATA; N-terminus and C-terminus assumed)
The Ki of the first is 1.5-fold higher: 3.24 nM for the first, 2.1 nM for the second.

— patent US12570695B2, “Bicyclic peptide ligands specific for EphA2” (priority 2019, dated 2026)
